For the test, the system named is MV-4-11 cells. Kind of test: Gene expression microarray analysis (Affymetrix PrimeView) and GSEA. On the set-up: RFU PODN (11730768_x_at) / Fold change /veh PODN (11730768_x_at) / RFU LINC00158 (11744669_a_at) / Fold change /veh LINC00158 (11744669_a_at) / RFU DUSP10 (11751237_a_at) / Fold change /veh DUSP10 (11751237_a_at) / RFU ID3 (11757404_x_at) / Fold change /veh ID3 (11757404_x_at) / RFU PLEKHG5 (11737974_s_at) / Fold change /veh PLEKHG5 (11737974_s_at) / RFU LRRC4B (11730491_at) / Fold change /veh LRRC4B (11730491_at) / RFU GIMAP4 (11747438_a_at) / Fold change /veh GIMAP4 (11747438_a_at) / RFU KRT8 (11758183_x_at) / Fold change /veh KRT8 (11758183_x_at) / RFU CNN1 (11734310_a_at) / Fold change /veh CNN1 (11734310_a_at) / RFU VPS37D (11726825_at) / Fold change /veh VPS37D (11726825_at) / RFU C10orf10 (11716522_x_at) / Fold change /veh C10orf10 (11716522_x_at) / RFU KIR2DL2 /// KIR2DL4 /// KIR2DL5A /// KIR2DL5B /// KIR2DS1 /// KIR2DS2 /// KIR2DS3 /// KIR2DS4 /// KIR3DL3 /// KIR3DL3 /// KIR3DS1 (11738374_at) / Fold change /veh KIR2DL2 /// KIR2DL4 /// KIR2DL5A /// KIR2DL5B /// KIR2DS1 /// KIR2DS2 /// KIR2DS3 /// KIR2DS4 /// KIR3DL3 /// KIR3DL3 /// KIR3DS1 (11738374_at) / RFU C1QL1 (11718748_at) / Fold change /veh C1QL1 (11718748_at) / RFU TMPRSS4 (11747572_a_at) / Fold change /veh TMPRSS4 (11747572_a_at) / RFU HAMP (11756126_x_at) / Fold change /veh HAMP (11756126_x_at) / RFU RNFT2 (11725882_a_at) / Fold change /veh RNFT2 (11725882_a_at) / RFU NR4A2 (11747474_a_at) / Fold change /veh NR4A2 (11747474_a_at) / RFU ABCC12 (11746883_a_at) / Fold change /veh ABCC12 (11746883_a_at) / RFU TMEM136 (11760407_x_at) / Fold change /veh TMEM136 (11760407_x_at) / RFU CLDN22 /// WWC2 (11732394_at) / Fold change /veh CLDN22 /// WWC2 (11732394_at) / RFU HLA-DPB1 (11760878_x_at) / Fold change /veh HLA-DPB1 (11760878_x_at) / RFU SPINT1 (11716480_a_at) / Fold change /veh SPINT1 (11716480_a_at) / RFU GAP43 (11754022_s_at) / Fold change /veh GAP43 (11754022_s_at) / RFU A4GNT (11735810_at) / Fold change /veh A4GNT (11735810_at) / RFU PRB3 (11715151_x_at) / Fold change /veh PRB3 (11715151_x_at) / RFU TUBB4B (11761932_at) / Fold change /veh TUBB4B (11761932_at) / RFU CAPN14 (11732068_a_at) / Fold change /veh CAPN14 (11732068_a_at) / RFU TMCC2 (11721928_a_at) / Fold change /veh TMCC2 (11721928_a_at) / RFU IRGQ (11745062_a_at) / Fold change /veh IRGQ (11745062_a_at) / RFU FAM174B (11720279_a_at) / Fold change /veh FAM174B (11720279_a_at) / RFU TMPRSS4 (11748680_a_at) / Fold change /veh TMPRSS4 (11748680_a_at) / RFU FAM212B (11763350_a_at) / Fold change /veh FAM212B (11763350_a_at) / RFU PLEKHG5 (11743358_a_at) / Fold change /veh PLEKHG5 (11743358_a_at) / RFU ZSCAN30 (11745921_a_at) / Fold change /veh ZSCAN30 (11745921_a_at) / RFU CMKLR1 (11741424_a_at) / Fold change /veh CMKLR1 (11741424_a_at) / RFU LOC101060620 /// MAPK8IP1 (11723275_at) / Fold change /veh LOC101060620 /// MAPK8IP1 (11723275_at) / RFU SPTSSB (11747773_x_at) / Fold change /veh SPTSSB (11747773_x_at) / RFU PRSS12 (11739890_at) / Fold change /veh PRSS12 (11739890_at) / RFU BIN1 (11741810_x_at) / Fold change /veh BIN1 (11741810_x_at) / RFU WNT11 (11732464_a_at) / Fold change /veh WNT11 (11732464_a_at) / RFU C10orf10 (11716521_a_at) / Fold change /veh C10orf10 (11716521_a_at) / RFU C5orf56 (11738089_at) / Fold change /veh C5orf56 (11738089_at) / RFU CYB561 (11721691_x_at) / Fold change /veh CYB561 (11721691_x_at) / RFU ANKRD19P (11752326_a_at) / Fold change /veh ANKRD19P (11752326_a_at) / RFU OR2T12 /// OR2T33 /// OR2T8 (11738714_s_at) / Fold change /veh OR2T12 /// OR2T33 /// OR2T8 (11738714_s_at) / RFU VCAN (11748164_a_at) / Fold change /veh VCAN (11748164_a_at) / RFU JSRP1 (11732532_at) / Fold change /veh JSRP1 (11732532_at) / RFU KRTAP10-11 (11738290_x_at) / Fold change /veh KRTAP10-11 (11738290_x_at) / RFU MYO3A (11730013_a_at) / Fold change /veh MYO3A (11730013_a_at) / RFU EBF3 (11725865_a_at) / Fold change /veh EBF3 (11725865_a_at) / RFU CAMK2N1 (11719241_x_at) / Fold change /veh CAMK2N1 (11719241_x_at) / RFU C5orf56 (11738088_a_at) / Fold change /veh C5orf56 (11738088_a_at) / RFU OLFML3 (11715873_a_at) / Fold change /veh OLFML3 (11715873_a_at) / RFU LOC100653217 /// NTM (11731650_a_at) / Fold change /veh LOC100653217 /// NTM (11731650_a_at) / RFU MAPK11 (11762145_a_at) / Fold change /veh MAPK11 (11762145_a_at) / RFU FIZ1 (11724087_x_at) / Fold change /veh FIZ1 (11724087_x_at) / RFU OASL (11726364_x_at) / Fold change /veh OASL (11726364_x_at) / RFU SOX15 (11748057_x_at) / Fold change /veh SOX15 (11748057_x_at) / RFU CD79A (11719716_a_at) / Fold change /veh CD79A (11719716_a_at) / RFU HIST1H1D (11736915_at) / Fold change /veh HIST1H1D (11736915_at) / RFU CASKIN2 (11723855_a_at) / Fold change /veh CASKIN2 (11723855_a_at) / RFU LOC730098 (11760151_x_at) / Fold change /veh LOC730098 (11760151_x_at) / RFU OR4N2 (11742367_at) / Fold change /veh OR4N2 (11742367_at) / RFU PRRT2 (11749266_a_at) / Fold change /veh PRRT2 (11749266_a_at) / RFU SNX32 (11753110_a_at) / Fold change /veh SNX32 (11753110_a_at) / RFU CDHR5 (11726645_a_at) / Fold change /veh CDHR5 (11726645_a_at) / RFU RCAN1 (11760418_a_at) / Fold change /veh RCAN1 (11760418_a_at) / RFU FAM167A (11723789_a_at) / Fold change /veh FAM167A (11723789_a_at) / RFU FAM26E (11764081_at) / Fold change /veh FAM26E (11764081_at) / RFU ISYNA1 (11749810_s_at) / Fold change /veh ISYNA1 (11749810_s_at) / RFU ACY1 (11761880_at) / Fold change /veh ACY1 (11761880_at) / RFU 11764098_at / Fold change /veh 11764098_at / RFU SAMD14 (11745864_x_at) / Fold change /veh SAMD14 (11745864_x_at) / RFU NPB (11741838_a_at) / Fold change /veh NPB (11741838_a_at) / RFU TMPRSS6 (11731388_a_at) / Fold change /veh TMPRSS6 (11731388_a_at) / RFU KRTAP10-2 (11738614_at) / Fold change /veh KRTAP10-2 (11738614_at) / RFU ARHGAP8 /// PRR5-ARHGAP8 (11727945_x_at) / Fold change /veh ARHGAP8 /// PRR5-ARHGAP8 (11727945_x_at) / RFU KRTAP5-7 /// NADSYN1 (11734609_at) / Fold change /veh KRTAP5-7 /// NADSYN1 (11734609_at) / RFU RASL12 (11751679_a_at) / Fold change /veh RASL12 (11751679_a_at) / RFU CDKN2B (11736163_a_at) / Fold change /veh CDKN2B (11736163_a_at) / RFU PRF1 (11729649_at) / Fold change /veh PRF1 (11729649_at) / RFU, ZNF638 /// ZNF638-IT1 / Fold change vs veh, ZNF638 /// ZNF638-IT1 / RFU, PANK3 / Fold change vs veh, PANK3 / RFU, SH3YL1 / Fold change vs veh, SH3YL1 / RFU, ZEB2 / Fold change vs veh, ZEB2 / RFU, NRIP1 / Fold change vs veh, NRIP1 / RFU, PTTG1IP / Fold change vs veh, PTTG1IP / RFU, CAPN2 / Fold change vs veh, CAPN2 / RFU, MED14 / Fold change vs veh, MED14 / RFU, SNORA58 / Fold change vs veh, SNORA58 / RFU, C1orf63 / Fold change vs veh, C1orf63 / RFU, LRRFIP1 / Fold change vs veh, LRRFIP1 / RFU, NDUFAF7 / Fold change vs veh, NDUFAF7 / RFU, SLC12A2 / Fold change vs veh, SLC12A2 / RFU, IBTK / Fold change vs veh, IBTK / RFU, ESF1 / Fold change vs veh, ESF1 / Fold change vs veh, TMEM50B / RFU, TAOK1 / Fold change vs veh, TAOK1 / RFU, ACBD3 / Fold change vs veh, ACBD3 / RFU, TMA16 / Fold change vs veh, TMA16 / RFU, RWDD3 / Fold change vs veh, RWDD3 / RFU, BCAT1 / Fold change vs veh, BCAT1 / RFU, EDEM3 / Fold change vs veh, EDEM3 / RFU, TMEM33 / Fold change vs veh, TMEM33 / RFU, WDR75 / Fold change vs veh, WDR75 / RFU, AHCTF1 / Fold change vs veh, AHCTF1 / RFU, TFRC / Fold change vs veh, TFRC / RFU, ZDHHC17 / Fold change vs veh, ZDHHC17 / RFU, NOM1 / Fold change vs veh, NOM1 / RFU, ARL8B / Fold change vs veh, ARL8B / RFU, ZBTB11 / Fold change vs veh, ZBTB11 / RFU, TAMM41 / Fold change vs veh, TAMM41 / RFU, KIAA1704 /// LOC100996395 / Fold change vs veh, KIAA1704 /// LOC100996395 / RFU, ING1 / Fold change vs veh, ING1 / RFU, TRMT61B / Fold change vs veh, TRMT61B / RFU, FUBP3 / Fold change vs veh, FUBP3 / RFU, TP53 / Fold change vs veh, TP53 / RFU, TNKS2 / Fold change vs veh, TNKS2 / RFU, ZFP14 / Fold change vs veh, ZFP14 / RFU, ACTR2 / Fold change vs veh, ACTR2 / RFU, PPP3R1 / Fold change vs veh, PPP3R1 / RFU, PIK3R1 / Fold change vs veh, PIK3R1 / RFU, HNRNPA1 / Fold change vs veh, HNRNPA1 / RFU, RNF170 / Fold change vs veh, RNF170 / RFU, ZNF28 / Fold change vs veh, ZNF28 / RFU, RNGTT / Fold change vs veh, RNGTT / RFU, OGT / Fold change vs veh, OGT / RFU, BRD1 / Fold change vs veh, BRD1 / RFU, MARS / Fold change vs veh, MARS / RFU, ZNF655 / Fold change vs veh, ZNF655 / RFU, FAHD1 / Fold change vs veh, FAHD1 / RFU, BDP1 / Fold change vs veh, BDP1 / RFU, LRRCC1 / Fold change vs veh, LRRCC1 / RFU, ARID1A / Fold change vs veh, ARID1A / RFU, ZNF146 / Fold change vs veh, ZNF146 / RFU, ZNF330 / Fold change vs veh, ZNF330 / RFU, GPN3 / Fold change vs veh, GPN3 / RFU, C9orf123 / Fold change vs veh, C9orf123 / RFU, N4BP2L2 / Fold change vs veh, N4BP2L2 / RFU, ARFIP1 / Fold change vs veh, ARFIP1 / RFU, FAM179B / Fold change vs veh, FAM179B / RFU, BCL10 / Fold change vs veh, BCL10 / RFU, UHRF1BP1L / Fold change vs veh, UHRF1BP1L / RFU, BET1 / Fold change vs veh, BET1 / RFU, CNOT2 / Fold change vs veh, CNOT2 / RFU, ZNF268 / Fold change vs veh, ZNF268 / Fold change vs veh, ZNF507 / RFU, DGCR2 / Fold change vs veh, DGCR2 / RFU, WDSUB1 / Fold change vs veh, WDSUB1 / Fold change vs veh, HSP90B1 /// MIR3652 / RFU, ADSS / Fold change vs veh, ADSS / RFU, GK / Fold change vs veh, GK / RFU, ZNF148 / Fold change vs veh, ZNF148 / RFU, TAF9 / Fold change vs veh, TAF9 / RFU, SLC1A5 / Fold change vs veh, SLC1A5 / RFU, SLMO2 / Fold change vs veh, SLMO2 / RFU, ABCC4 / Fold change vs veh, ABCC4 / RFU, LOC101060439 /// RAP1B / Fold change vs veh, LOC101060439 /// RAP1B / RFU, RFX7 / Fold change vs veh, RFX7 / RFU, GTPBP10 / Fold change vs veh, GTPBP10 / RFU, CNEP1R1 / Fold change vs veh, CNEP1R1 / RFU, BIVM-ERCC5 /// ERCC5 / Fold change vs veh, BIVM-ERCC5 /// ERCC5 / RFU, ILF3 / Fold change vs veh, ILF3 / RFU 11762660_at / Fold change /veh 11762660_at / RFU VCAN (11757783_s_at) / Fold change /veh VCAN (11757783_s_at) / RFU DDX43 (11728927_at) / Fold change /veh DDX43 (11728927_at) / RFU KRT8 (11758188_x_at) / Fold change /veh KRT8 (11758188_x_at) / RFU NKD1 (11759106_at) / Fold change /veh NKD1 (11759106_at) / RFU SRD5A1 (11742802_a_at) / Fold change /veh SRD5A1 (11742802_a_at) / RFU TPSAB1 /// TPSB2 (11721975_s_at) / Fold change /veh TPSAB1 /// TPSB2 (11721975_s_at) / RFU GSTM3 (11746129_a_at) / Fold change /veh GSTM3 (11746129_a_at) / RFU IL23R (11737362_x_at) / Fold change /veh IL23R (11737362_x_at) / RFU TMEM51 (11727254_a_at) / Fold change /veh TMEM51 (11727254_a_at) / RFU PIWIL2 (11732686_x_at) / Fold change /veh PIWIL2 (11732686_x_at) / RFU ORM1 (11744905_x_at) / Fold change /veh ORM1 (11744905_x_at) / RFU CCDC152 (11743942_at) / Fold change /veh CCDC152 (11743942_at) / RFU ECM1 (11717891_a_at) / Fold change /veh ECM1 (11717891_a_at) / RFU IL23R (11748794_a_at) / Fold change /veh IL23R (11748794_a_at) / RFU TNFAIP8L3 (11732012_x_at) / Fold change /veh TNFAIP8L3 (11732012_x_at) / RFU MBOAT4 (11741988_at) / Fold change /veh MBOAT4 (11741988_at) / RFU 11764193_at / Fold change /veh 11764193_at / RFU TMEM53 (11763286_at) / Fold change /veh TMEM53 (11763286_at) / RFU MAGEB2 (11727129_at) / Fold change /veh MAGEB2 (11727129_at) / RFU TMEM200A (11744735_a_at) / Fold change /veh TMEM200A (11744735_a_at) / RFU CCDC152 (11751479_a_at) / Fold change /veh CCDC152 (11751479_a_at) / RFU FAM211A (11726209_a_at) / Fold change /veh FAM211A (11726209_a_at) / RFU RGS16 (11746705_a_at) / Fold change /veh RGS16 (11746705_a_at) / RFU VCAN (11755009_s_at) / Fold change /veh VCAN (11755009_s_at) / RFU RHOB (11743442_s_at) / Fold change /veh RHOB (11743442_s_at) / RFU RGS16 (11720943_a_at) / Fold change /veh RGS16 (11720943_a_at) / RFU RGS16 (11720944_at) / Fold change /veh RGS16 (11720944_at) / RFU, VPS4B / Fold change vs veh, VPS4B / RFU, CREB1 / Fold change vs veh, CREB1 / RFU, DNAJC13 / Fold change vs veh, DNAJC13 / RFU, GNAQ / Fold change vs veh, GNAQ / RFU, CDK5R1 / Fold change vs veh, CDK5R1 / RFU, ZRANB3 / Fold change vs veh, ZRANB3 / RFU, CUL4A / Fold change vs veh, CUL4A / RFU, CCNY / Fold change vs veh, CCNY / RFU, UFL1 / Fold change vs veh, UFL1 / RFU, COG3 / Fold change vs veh, COG3 / RFU, DIAPH2 / Fold change vs veh, DIAPH2 / RFU, SKA2 / Fold change vs veh, SKA2 / RFU, AFF3 / Fold change vs veh, AFF3 / RFU, LMF1 / Fold change vs veh, LMF1 / RFU, IPO11 / Fold change vs veh, IPO11 / RFU, DFFB / Fold change vs veh, DFFB / RFU, FOXP1 / Fold change vs veh, FOXP1 / RFU, CARD8 / Fold change vs veh, CARD8 / RFU, STRN3 / Fold change vs veh, STRN3 / RFU, ADK / Fold change vs veh, ADK / RFU, RASSF2 / Fold change vs veh, RASSF2 / RFU, WIPF1 / Fold change vs veh, WIPF1 / RFU, LARP1B / Fold change vs veh, LARP1B / RFU, RASA1 / Fold change vs veh, RASA1 / RFU, RB1 / Fold change vs veh, RB1 / RFU, PPFIA1 / Fold change vs veh, PPFIA1 / RFU, MAT2A / Fold change vs veh, MAT2A / RFU, CCT5 / Fold change vs veh, CCT5 / RFU, WDR92 / Fold change vs veh, WDR92 / RFU, CUX1 / Fold change vs veh, CUX1 / RFU, TTC7A / Fold change vs veh, TTC7A / RFU, TMEM135 / Fold change vs veh, TMEM135 / RFU, DEPTOR / Fold change vs veh, DEPTOR / RFU, CPM / Fold change vs veh, CPM / RFU, DNAJB6 / Fold change vs veh, DNAJB6 / RFU, CACNA2D3 / Fold change vs veh, CACNA2D3 / RFU, DTX4 / Fold change vs veh, DTX4 / RFU, TFCP2 / Fold change vs veh, TFCP2 / RFU, GMCL1 /// GMCL1P1 / Fold change vs veh, GMCL1 /// GMCL1P1 / RFU, AEBP2 / Fold change vs veh, AEBP2 / RFU, SNHG1 /// SNORD22 /// SNORD25 /// SNORD26 /// SNORD27 /// SNORD28 /// SNORD29 /// SNORD31 / Fold change vs veh, SNHG1 /// SNORD22 /// SNORD25 /// SNORD26 /// SNORD27 /// SNORD28 /// SNORD29 /// SNORD31 / Fold change (Aza/veh), C12orf56 (ProbeSet 11735607_a_at) / Fold change (ACY-1035/veh), C12orf56 (ProbeSet 11735607_a_at) / Fold change (Aza/veh), FGFR1OP (ProbeSet 11751329_s_at) / Fold change (ACY-1035/veh), FGFR1OP (ProbeSet 11751329_s_at) / Fold change (Aza/veh), VPS36 (ProbeSet 11739960_a_at) / Fold change (ACY-1035/veh), VPS36 (ProbeSet 11739960_a_at) / RFU SYPL1 (11715823_x_at) / Fold change /veh SYPL1 (11715823_x_at) / RFU IGFBP7 (11715501_s_at) / Fold change /veh IGFBP7 (11715501_s_at) / RFU REEP3 (11722064_at) / Fold change /veh REEP3 (11722064_at) / RFU IGLL1 (11728026_x_at) / Fold change /veh IGLL1 (11728026_x_at): dose or concentration left out as unconfirmed. Type of test: cell-based, human. The note with it: ProbeSet 11760938_a_at; LIST D.

Turning to `Nc1ncn([C@@H]2O[C@H](CO)[C@@H](O)[C@H]2O)c(=O)n1` [azacitidine], the “RFU, MAT2A” value was 129.03 RFU.

Values taken from publication PMC5218480 (PLoS ONE, 2017).
